In the test the target is T1, F508del (Homo sapiens, UniProt P13569, DEL508-508).
T1 construct: expressed in transfected cells
Briefly: Membrane potential optical assay (FRET voltage-sensor dyes), identification of correction compounds. The format is cell-based. The settings on record: NIH3T3 cells stably expressing F508del, procedures described above; for Emax: maximum efficacy, read-out: Max Efficacy; for EC50: modulation of CFTR activity. The method, then:
(§1) NIH3T3 mouse fibroblasts stably expressing F508del are used for optical measurements of membrane potential. The cells are maintained at 37° C. in 5% CO2 and 90% humidity in Dulbecco's modified Eagle's medium supplemented with 2 mM glutamine, 10% fetal bovine serum, 1×NEAA, β-ME, 1× pen/strep, and 25 mM HEPES in 175 cm^2 culture flasks. For all optical assays, the cells were seeded at 12,000 cells/well in 384-well matrigel-coated plates and cultured for 18-24 hrs at 37° C. for the potentiator assay. For the correction assays, the cells are cultured at 37° C. with and without compounds for 18-24 hours.
Membrane potential optical methods for assaying F508del modulation properties of compounds.
The optical membrane potential assay utilized voltage-sensitive FRET sensors described by Gonzalez and Tsien (See Gonzalez, J. E. and R. Y. Tsien (1995) “Voltage sensing by fluorescence resonance energy transfer in single cells” Biophys J 69(4): 1272-80, and Gonzalez, J. E. and R. Y. Tsien (1997) “Improved indicators of cell membrane potential that use fluorescence resonance energy transfer” Chem Biol 4(4): 269-77) in combination with instrumentation for measuring fluorescence changes such as the Voltage/Ion Probe Reader (VIPR) (See, Gonzalez, J. E., K. Oades, et al. (1999) “Cell-based assays and instrumentation for screening ion-channel targets” Drug Discov Today 4(9): 431-439).
These voltage sensitive assays are based on the change in fluorescence resonant energy transfer (FRET) between the membrane-soluble, voltage-sensitive dye, DiSBAC2(3), and a fluorescent phospholipid, CC2-DMPE, which is attached to the outer leaflet of the plasma membrane and acts as a FRET donor. Changes in membrane potential (Vm) cause the negatively charged DiSBAC2(3) to redistribute across the plasma membrane and the amount of energy transfer from CC2-DMPE changes accordingly. The changes in fluorescence emission were monitored using VIPR™ II, which is an integrated liquid handler and fluorescent detector designed to conduct cell-based screens in 96- or 384-well microtiter plates.
To identify small molecules that correct the trafficking defect associated with F508del; a single-addition HTS assay format was developed. The cells were incubated in serum-free medium for 16 hrs at 37° C. in the presence or absence (negative control) of test compound. As a positive control, cells plated in 384-well plates were incubated for 16 hrs at 27° C. to “temperature-correct” F508del. The cells were subsequently rinsed 3× with Krebs Ringers solution and loaded with the voltage-sensitive dyes. To activate F508del, 10 μM forskolin and the CFTR potentiator, genistein (20 μM), were added along with Cl^−-free medium to each well. The addition of Cl^−-free medium promoted Cl^− efflux in response to F508del activation and the resulting membrane depolarization was optically monitored using the FRET-based voltage-sensor dyes.
• Bath Solution #1: (in mM) NaCl 160, KCl 4.5, CaCl2 2, MgCl2 1, HEPES 10, pH 7.4 with NaOH. • Chloride-free bath solution: Chloride salts in Bath Solution #1 (above) are substituted with gluconate salts. • CC2-DMPE: Prepared as a 10 mM stock solution in DMSO and stored at −20° C. • DiSBAC2(3): Prepared as a 10 mM stock in DMSO and stored at −20° C. Cell Culture
as §1, with “seeded at 30,000/well in 384-well” for “seeded at 12,000 cells/well in 384-well”, “cultured for 2 hrs at” for “cultured for 18-24 hrs at”, “37° C. before culturing at 27° C. for 24 hrs for the” for “37° C. for the”, “cultured at 27° C. or 37° C.” for “cultured at 37° C.”, “compounds for 16-24 hours.” for “compounds for 18-24 hours.”

These results are taken from patent US10738030B2, “Modulators of cystic fibrosis transmembrane conductance regulator” (Vertex Pharmaceuticals Incorporated, priority 2016, dated 2020).

T1 sequence (P13569 with tags, fused parts or gaps DEL508-508): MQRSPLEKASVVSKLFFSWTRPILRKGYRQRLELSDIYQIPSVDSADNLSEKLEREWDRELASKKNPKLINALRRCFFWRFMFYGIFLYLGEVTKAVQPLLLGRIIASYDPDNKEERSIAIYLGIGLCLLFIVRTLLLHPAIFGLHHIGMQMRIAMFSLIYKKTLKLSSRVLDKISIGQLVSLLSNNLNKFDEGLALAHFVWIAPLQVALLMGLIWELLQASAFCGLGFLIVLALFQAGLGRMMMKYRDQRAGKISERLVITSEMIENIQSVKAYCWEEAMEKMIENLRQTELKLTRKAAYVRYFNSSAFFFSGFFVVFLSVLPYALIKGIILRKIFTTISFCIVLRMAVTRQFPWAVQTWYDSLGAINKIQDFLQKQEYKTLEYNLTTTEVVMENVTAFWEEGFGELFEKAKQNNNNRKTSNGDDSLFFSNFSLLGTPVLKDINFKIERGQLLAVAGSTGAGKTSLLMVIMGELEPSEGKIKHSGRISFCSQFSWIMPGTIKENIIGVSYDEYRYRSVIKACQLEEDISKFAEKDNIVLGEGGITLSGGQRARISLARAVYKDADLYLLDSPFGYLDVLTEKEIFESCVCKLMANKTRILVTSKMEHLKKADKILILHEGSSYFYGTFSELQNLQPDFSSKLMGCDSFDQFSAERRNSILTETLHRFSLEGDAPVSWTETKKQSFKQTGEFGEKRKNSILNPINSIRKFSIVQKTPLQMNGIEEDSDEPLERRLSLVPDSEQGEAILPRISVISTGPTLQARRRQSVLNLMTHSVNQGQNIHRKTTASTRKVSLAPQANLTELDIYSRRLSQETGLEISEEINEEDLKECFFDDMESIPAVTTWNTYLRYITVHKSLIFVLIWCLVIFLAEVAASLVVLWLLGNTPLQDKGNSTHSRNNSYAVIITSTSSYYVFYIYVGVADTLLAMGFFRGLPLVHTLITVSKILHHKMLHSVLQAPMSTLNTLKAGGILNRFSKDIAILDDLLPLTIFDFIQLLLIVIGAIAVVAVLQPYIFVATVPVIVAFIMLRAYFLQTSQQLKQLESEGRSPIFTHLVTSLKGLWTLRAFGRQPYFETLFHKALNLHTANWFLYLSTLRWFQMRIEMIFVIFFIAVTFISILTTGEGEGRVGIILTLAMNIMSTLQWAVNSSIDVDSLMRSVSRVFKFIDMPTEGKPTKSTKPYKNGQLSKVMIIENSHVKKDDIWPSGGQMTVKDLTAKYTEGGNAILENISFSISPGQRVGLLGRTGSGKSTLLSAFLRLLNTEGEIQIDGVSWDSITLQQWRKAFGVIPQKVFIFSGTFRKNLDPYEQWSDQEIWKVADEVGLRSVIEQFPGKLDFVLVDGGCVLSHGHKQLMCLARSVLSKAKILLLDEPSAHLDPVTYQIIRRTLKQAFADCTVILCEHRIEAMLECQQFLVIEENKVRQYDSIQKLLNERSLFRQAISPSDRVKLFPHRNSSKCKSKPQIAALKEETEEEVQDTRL

As for `CC(C)COc1cc(F)cc(-c2ccc(C(=O)NS(=O)(=O)c3cccc(N)n3)c(N(C)CC(F)F)n2)c1` [Compound 1, N-[(6-amino-2-pyridyl)sulfonyl]-2-[2,2-difluoroethyl(methyl)amino]-6-(3-fluoro-5-isobutoxy-phenyl)pyridine-3-carboxamide], the Emax was greater than 80% and the EC50 is less than 3 µM.

As to `CC(C)CCOc1nc(-c2cc(F)cc(OCC(C)C)c2)ccc1C(=O)NS(=O)(=O)c1cccc(N)n1` [Compound 2, N-[(6-amino-2-pyridyl)sulfonyl]-6-(3-fluoro-5-isobutoxy-phenyl)-2-isopentyloxy-pyridine-3-carboxamide], the Emax is greater than 80% and the EC50 was less than 3 µM.

In the case of `CC(C)COc1cc(F)cc(-c2ccc(C(=O)NS(=O)(=O)c3cccc(N)n3)c(OCCC(C)(C)C)n2)c1` [Compound 3, N-[(6-amino-2-pyridyl)sulfonyl]-2-(3,3-dimethylbutoxy)-6-(3-fluoro-5-isobutoxy-phenyl)pyridine-3-carboxamide], the Emax is greater than 80% and the EC50 was less than 3 µM.

Take `CC(C)COc1cc(F)cc(-c2ccc(C(=O)NS(=O)(=O)c3cccc(N)n3)c(OCCOC(C)(C)C)n2)c1` [Compound 4, N-[(6-amino-2-pyridyl)sulfonyl]-2-(2-tert-butoxyethoxy)-6-(3-fluoro-5-isobutoxy-phenyl)pyridine-3-carboxamide]: the Emax is 30 to 80% and the EC50 is less than 3 µM.

Take `CC(C)COc1cc(F)cc(-c2ccc(C(=O)NS(=O)(=O)c3cccc(N)n3)c(OC(C)C)n2)c1` [Compound 5, N-[(6-amino-2-pyridyl)sulfonyl]-6-(3-fluoro-5-isobutoxy-phenyl)-2-isopropoxy-pyridine-3-carboxamide]: the Emax was greater than 80% and the EC50 was less than 3 µM.

As to `CC(C)COc1cc(F)cc(-c2ccc(C(=O)NS(=O)(=O)c3cccc(N)n3)c(OC(C)C(F)(F)C(F)F)n2)c1` (stereo not shown) [Compound 6, N-[(6-amino-2-pyridyl)sulfonyl]-6-(3-fluoro-5-isobutoxy-phenyl)-2-(2,2,3,3-tetrafluoro-1-methyl-propoxy)pyridine-3-carboxamide], the Emax fell in the range of 30 to 80% and the EC50 was less than 3 µM.

In the case of `CC(C)COc1cc(F)cc(-c2ccc(C(=O)NS(=O)(=O)c3cccc(N)n3)c3nc(C(F)(F)F)cn23)c1` [Compound 7, N-[(6-amino-2-pyridyl)sulfonyl]-5-(3-fluoro-5-isobutoxy-phenyl)-2-(trifluoromethyl)imidazo[1,2-a]pyridine-8-carboxamide], the Emax is 30 to 80% and the EC50 is less than 3 µM.

On to `CCN(CC)c1nc(-c2ccc(OC(C)C)nc2)ccc1C(=O)NS(=O)(=O)c1cccc(N)n1` [Compound 8, N-((6-Aminopyridin-2-yl)sulfonyl)-6-(diethylamino)-6′-isopropoxy-[2,3′-bipyridine]-5-carboxamide], for which the Emax was 30 to 80% and the EC50 lay in the range of 3 to 10 µM.

In the case of `CC(C)COc1cc(F)cc(-c2ccc(C(=O)NS(=O)(=O)c3cccc(N)n3)c(OC(C)CC(F)(F)F)n2)c1` (stereo not shown) [Compound 9, N-[(6-amino-2-pyridyl)sulfonyl]-6-(3-fluoro-5-isobutoxy-phenyl)-2-(3,3,3-trifluoro-1-methyl-propoxy)pyridine-3-carboxamide], the Emax was in the range of 30 to 80% and the EC50 is less than 3 µM.

With `COc1nc(-c2cc(F)cc(OCC(C)C)c2)ccc1C(=O)NS(=O)(=O)c1cccc(N)n1` [Compound 10, N-[(6-amino-2-pyridyl)sulfonyl]-6-(3-fluoro-5-isobutoxy-phenyl)-2-methoxy-pyridine-3-carboxamide], the Emax is 30 to 80% and the EC50 was less than 3 µM.

On to `CCCCCOc1nc(-c2cc(F)cc(OCC(C)C)c2)ccc1C(=O)NS(=O)(=O)c1cccc(N)n1` [Compound 11, N-[(6-amino-2-pyridyl)sulfonyl]-6-(3-fluoro-5-isobutoxy-phenyl)-2-pentoxy-pyridine-3-carboxamide], for which the Emax is greater than 80% and the EC50 was less than 3 µM.
